{"source": "patent US20200078404A1", "about": "“COMBINATION OF A CELL THERAPY AND AN IMMUNOMODULATORY COMPOUND” (Juno Therapeutics, Inc., priority 2017, published 2020)", "key": {"[1]": {"system": "anti-BCMA CAR T cells with RPMI-8226", "experiment": "Cytokine production of anti-BCMA CAR T cells co-cultured with RPMI-8226 with or without lenalidomide", "format": "cell-based, human", "from_the_text": "Culture of T cells not expressing the anti-BCMA CAR (mock) was used as a control."}, "[2]": {"system": "anti-BCMA CAR T cells with OPM-2", "experiment": "Cytokine production of anti-BCMA CAR T cells co-cultured with OPM-2 with or without lenalidomide", "format": "cell-based, human"}, "anti-CD19 CAR+ T cells": {"system": "anti-CD19 CAR+ T cells", "experiment": "Serial restimulation of anti-CD19 CAR+ T cells with K562-CD19 cells: expansion", "format": "cell-based, human", "conditions": "1 μM lenalidomide, 4 rounds of stimulation, 12 days, two donors", "procedure": "The ability of anti-CD19 CAR+ T cells to expand ex vivo following repeated stimulations was assessed using methods substantially as described in Example 2. […] For each donor, cells were harvested every 3-5 days from each experimental condition in the wells and counted, and restimulated with new target cells using the same culture conditions after resetting cell number to initial seeding density for each round. A total of 4 rounds of stimulation during a 12 day culture period were carried out. For each round of stimulation, the total number of cells was determined, and the results were depicted as the fold-change of cell number after stimulation (FIG. 17A) or number of doublings compared to initial number (FIG. 17B)."}, "K562-CD19 cells [3]": {"system": "K562-CD19 cells", "experiment": "Cytolytic activity of restimulated anti-CD19 CAR+ T cells against K562-CD19 cells", "format": "cell-based, human", "conditions": "1 μM lenalidomide, 2nd and 4th restimulation", "procedure": "Cells from each condition were plated in triplicate. Representative cell killing observed at the 2nd and 4th restimulation for both donors is shown in FIG. 18A (as normalized to K562-CD19-Nuc-labeled cells at t=0) or in FIG. 18B (% cell killing compared to vehicle only control (set at 100%))."}, "anti-BCMA CAR+ T cells": {"system": "anti-BCMA CAR+ T cells", "experiment": "T cell markers and proliferation of anti-BCMA CAR+ T cells stimulated with BCMA-conjugated beads", "format": "cell-based, human", "procedure": "B cell maturation antigen (BCMA) was conjugated to beads by covalently coupling a BCMA-Fc fusion polypeptide, containing soluble human BCMA fused at its C-terminus to an Fc region of IgG, to the surface of commercially available tosyl-activated magnetic beads (ThermoFisher, Waltham Mass.). The beads are superparamagnetic, non-porous, monodisperse, tosylactivated beads that covalently bind primary amino and sulfhydryl groups. Conjugation was performed using beads having a diameter of approximately 2.8 μm (designated M-280) or 4.5 μm (designated M-450).\nVarious concentrations of the BCMA-Fc fusion protein ranging from 5 μg to 200 μg were added to approximately 1 mL of tocylactivated beads (e.g. containing about 4×10^9 tocylactivated beads having a diameter of 2.8 μm or about 4×10^8 tocylactivated beads having a diameter of 4.5 μm). Covalent coupling was performed by overnight incubation at 37° C. in phosphate buffered solution (PBS) containing 0.1% human serum albumin (HSA). Beads were washed and resuspended in 1 mL PBS with 0.1% HSA. After conjugation, the bead concentration was determined using a Cellometer. In the examples below, the BCMA-conjugated beads used in various studies are referred to with reference either to the amount of BCMA-Fc antigen added per mL or the antigen concentration (μg/mL) during the conjugation, e.g. 5 μg or 5 μg/mL; 50 μg or 50 μg/mL; 200 μg or 200 μg/mL and so on.\nApproximately 1.5×10^6 CAR+ T cells were added to wells of a 12-well plate and were incubated with beads from a 200 μg/ml BCMA-conjugated bead composition at a ratio of CAR+ T cell to BCMA-conjugated bead of 1:0.3, 1:1 or 1:3 (approximately 0.5×10^6, 1.5. 10^6, and 4.5×10^6 beads per well, respectively). As controls, 5 μg/mL anti-CD3 antibody was coated to wells (sub-optimal concentration for stimulation) or cells were seeded in the absence of any agent (no stimulation control). […]\nIn a further experiment, anti-BCMA CAR-T cell compositions produced substantially as described in Example 1 were plated in 96-well plates at a density of 5×10^5 cells per well. […]"}, "RPMI-8226 target cells": {"system": "RPMI-8226 target cells", "experiment": "Cytolytic activity against RPMI-8226 after seven days incubation with BCMA-conjugated beads", "format": "cell-based, human", "procedure": "Cytolytic activity of CAR+ T cells after incubation with BCMA-conjugated beads was assessed by incubation with the BCMA-expressing target cell line RPMI-8226, which is a BCMA+ multiple myeloma cell line. […] The number of viable cells was normalized to cells at day 0 prior to incubation with the RPMI-8226 target cells."}, "anti-BCMA CAR T cells": {"system": "anti-BCMA CAR T cells", "experiment": "Cytokine production on BCMA/PD-L1 conjugated beads", "format": "cell-based, human", "conditions": "1 μM lenalidomide, 24 hours", "procedure": "In another study, to explore whether the lenalidomide-induced potentiation of CAR T activation and cytokine production could override PD-L1-mediated inhibition, cells were cultured in the presence of BCMA beads generated as described in Example 9, with or without additional conjugation of human recombinant PD-L1-Fc. […] Cytokine production was measured in the supernatant."}, "[4]": {"system": "anti-CD19 CAR-expressing T cells", "experiment": "Cytokine production of anti-CD19 CAR-expressing T cells incubated with K562.CD19 target cells", "format": "cell-based, human", "conditions": "concentration-dependent, E:T 5:1 and 2.5:1, 24 hours, vs vehicle"}, "K562.CD19 target cells": {"system": "K562.CD19 target cells", "experiment": "Serial stimulation with K562.CD19: cytolytic function at day 24", "format": "cell-based, human", "conditions": "day 24 after serial stimulation", "from_the_text": "(§1) Every 3-4 days (start of each new round), the cells were counted."}, "[5]": {"system": "anti-CD19 CAR-expressing T cells", "experiment": "Serial stimulation with K562.CD19: expansion (cell doublings)", "format": "cell-based, human", "conditions": "for cell doublings: 1000 nM lenalidomide", "from_the_text": "as §1"}, "RPMI-8226": {"system": "RPMI-8226", "conditions": "read-out: sensitive to lenalidomide; cited from earlier work"}, "K562-CD19 cells [6]": {"system": "K562-CD19 cells", "conditions": "1-5000 nM lenalidomide, E:T 2.5:1, about 120 hours"}}, "note": "pIC50: −log10 of the molar value."}
{"smiles": "Nc1cccc2c1CN(C1CCC(=O)NC1=O)C2=O", "note": "(stereo not drawn) [lenalidomide, 3-(4-amino-1-oxo-1,3-dihydro-2H-isoindol-2-yl)piperidine-2,6-dione]", "values": [{"measurement": "CAR-dependent cytokine production and/or accumulation (IL-2, IFNγ, TNF-α)", "setting": "[1]; 10 μM lenalidomide, E:T 0.3:1, 48 hours", "value": "increase in CAR-dependent cytokine production and/or accumulation"}, {"measurement": "cytokine production by CAR-expressing T cells (IFN-γ, IL-2, TNF-α)", "setting": "[1]; three healthy donors and one patient donor", "value": "significantly increased across all donors and cytokines"}, {"measurement": "cytokine production and/or accumulation (IFNγ, IL-2, TNF-α)", "setting": "[2]; 0.01-10 μM lenalidomide, E:T 1:1, 24 hours, four donors", "value": "enhance cytokine production and/or accumulation by antigen-stimulated anti-BCMA CAR+ T cells in a dose-dependent manner"}, {"measurement": "IFN-γ, IL-2 and TNF-α production", "setting": "[2]; all CAR T donors, concentration-dependent", "value": "significantly increased IFN-γ, IL-2, and TNF-α production"}, {"measurement": "cytokine production (IFNγ, IL-2)", "setting": "[2]; healthy donor and multiple myeloma patient, E:T 1:1, 24 hours", "value": "increased by lenalidomide in a concentration-dependent manner"}, {"measurement": "cell expansion of anti-CD19 CAR+ T cells", "setting": "anti-CD19 CAR+ T cells", "value": "no change or only a minor effect in cell expansion"}, {"measurement": "anti-CD19 CAR+ T cell cytolytic activity", "setting": "K562-CD19 cells [3]", "value": "decrease in anti-CD19 CAR+ T cell cytolytic activity"}, {"measurement": "expression level of Ikaros", "setting": "anti-BCMA CAR+ T cells; 0.5 μM or 5 μM lenalidomide, 18 hours, all conditions", "value": "decreased"}, {"measurement": "proliferative capacity of T cells (CTV)", "setting": "anti-BCMA CAR+ T cells; 5 μM lenalidomide, 200 μg BCMA beads, 1:1, three days", "value": "increased the proliferative capacity of T cells"}, {"measurement": "surface expression of CD25 in CD4+ and CD8+ T cells", "setting": "anti-BCMA CAR+ T cells; 5 μM lenalidomide, BCMA-conjugated beads or anti-CD3", "value": "further increased the extent of surface expression of CD25"}, {"measurement": "target cell viability", "setting": "RPMI-8226 target cells; RPMI 8226 cells cultured with lenalidomide, no CAR T", "value": "did not directly influence target cell viability"}, {"measurement": "killing activity", "setting": "RPMI-8226 target cells; lenalidomide present during the cell killing assay", "value": "did not substantially affect killing activity"}, {"measurement": "cytolytic activity of the CAR+ T cells", "setting": "RPMI-8226 target cells; preincubation with 5 μM lenalidomide during seven day bead incubation", "value": "increased cytolytic activity of the CAR+ T cells"}, {"measurement": "secreted cytokine levels (IFN-γ, IL-2, TNF-α)", "setting": "anti-BCMA CAR T cells", "value": "potentiated secreted cytokine levels"}, {"measurement": "cytokine production (IFN-γ, IL-2, TNF-α)", "setting": "[4]", "value": "increased"}, {"measurement": "cytolytic activity of anti-CD19 CAR-expressing T cells", "setting": "K562.CD19 target cells", "value": "increase the cytolytic activity"}, {"measurement": "CAR+ T cell counts", "setting": "[5]; 100 nM lenalidomide", "value": "increased CAR+ T cell counts for two out of three donors"}, {"measurement": "cell doublings", "setting": "[5]; 2.5:1 E:T ratio, later rounds", "value": "lower cell doublings were only observed in two of the donors"}, {"measurement": "cell doublings", "setting": "[5]; 10:1 E:T ratio, after 3-4 rounds, all donors", "value": "decreased cell doublings"}, {"measurement": "pIC50", "setting": "RPMI-8226", "value": 5.19}, {"measurement": "CAR-mediated cytolytic activity", "setting": "K562-CD19 cells [6]", "value": "reduced CAR-mediated cytolytic activity"}]}
